# Test results from patent publication US20250197398A1, “Varenicline Related Compounds and Methods for Treating Diseases and Conditions Including Tobacco Use Disorder” (SpaceRX LLC, priority 2022, published 2025).
# Columns and labels:
# Type in all cases: in vivo
# [1] = test system: nicotine-induced dopamine signaling in the striatum; experiment: Nicotine-evoked striatal dopamine release after compound pretreatment (GRAB-DA sensor, fiber photometry); settings: awake mice pretreated with compound; IP nicotine 2 hours later; mean dopamine response for 30 minutes following nicotine; varenicline 1.5 and 4.5 mpk; FIG. 2A-2C
# Excerpt: (§1) FIG. 1A-FIG. 1B are a schematic and a response curve illustrating the monitoring of striatal dopamine in the awake behaving animal in response to varenicline. […] Scale bar, 200 μm.
# FIG. 2A-FIG. 2C are bar graphs and a response curve illustrating the striatal dopamine responses to nicotine. […] FIGS. 2B-2C show exemplary traces and quantification of striatal dopamine responses preceding and following an IP administration of nicotine. Mice were pretreated either with Varenicline (light grey) or Varenicline-Encarbil (dark grey).
# (§2) The ability of varenicline to decrease nicotine use comes from the ability to block nicotine-induced dopamine signaling in the striatum. Real-time sensing of dopamine levels in awake and behaving mice was measured using a fluorescent dopamine sensor (GRAB-DA) and fluorometric measurements of that sensor (Fiber Photometry).
# striatal dopamine levels = experiment: Striatal dopamine response to oral compound administration (GRAB-DA sensor, fiber photometry); settings: awake mice; mean for 30 minutes following compound administration; varenicline 1.5 and 4.5 mpk; FIG. 3A-3B
# Excerpt: as §1
# FIG. 3A-FIG. 3B are a bar graph and a response curve illustrating the striatal dopamine responses to oral compound administration.
# as §2
# [2] = test system: anxiety-like behavior in mice; experiment: Open field assay after oral compound administration; settings: varenicline 1.5 and 4.5 mpk, FIG. 5
# Excerpt: FIG. 5 is a bar graph illustrating open field responses to oral administration of compounds.
# Varenicline also influenced the mobility and anxiety-like behavior in mice.
anxiety-like behavior: time spent in center of open field [2],Structure (SMILES),efficacy at reducing the nicotine-evoked release of dopamine [1],striatal dopamine response following oral administration of compound (striatal dopamine levels)
dramatically reduced time in the middle,c1cnc2cc3c(cc2n1)[C@@H]1CNC[C@H]3C1 [varenicline],"regardless the dose of varenicline, the response to nicotine 2 hours later is the same",increased striatal dopamine levels after administration
–,CC(OC(=O)C(C)C)OC(=O)N1CC2CC(C1)c1cc3nccnc3cc12 (stereo not drawn) [Varenicline-Encarbil],better efficacy when compared directly to varenicline,mimic the effects of varenicline
not observed,O=C(N[C@@H](CO)C(=O)O)c1ccc[n+](COC(=O)N2CC3CC(C2)c2cc4nccnc4cc23)c1 [Servarenicline Chloride],better efficacy when compared directly to varenicline,do not lead to dopamine release
not observed,NCC(=O)N1CC2CC(C1)c1cc3nccnc3cc12 [Varenicline Glycinamide],–,do not lead to dopamine release

Structure (SMILES),anxiety-like behavior: time spent in center of open field [2],efficacy at reducing the nicotine-evoked release of dopamine [1],striatal dopamine response following oral administration of compound (striatal dopamine levels)
N[C@@H](Cc1ccc(OC(=O)N2CC3CC(C2)c2cc4nccnc4cc23)cc1)C(=O)O [Varenicline-CBT],not observed,–,do not lead to dopamine release
